Experiments:
[1] = tested on: allodynia induced by sulprostone; test: Mouse sulprostone model of allodynia; assay type: in vivo; details: for attenuation of the allodynic response (analgesic activity): up to 1 mg/kg, 15 min before sulprostone 300 ng/kg IP, FIG. 3
Protocol: In this alternative model of chronic pain, allodynia can be induced in mice through intraperitoneal treatment of the animals with 300 ng/kg sulprostone (prostaglandin E2 receptor agonist) in 50% DMSO and in a volume of 5 μl. In this model, the pain response to stroking the flank with a paint brush is scored 8 times over a 35 minute period starting 15 minutes following spinal administration of sulprostone. Minami et al., 57 Pain 217-223 (1994), hereby incorporated by reference herein. Sulprostone treatment alone elicits a score of 12-13 on a 16-point scale.
In either model, the compounds are formulated in d-H2O and given in a volume of 1 ml/kg body weight for intraperitoneal (IP) dosing.
Six mice per group are rendered allodynic by injection of one of the following agents: 300 ng/kg sulprostone in DMSO IP, 100 ng/kg phenylephrine (PE) in dH2O IP, or 100 ng NMDA in DMSO intrathecally (IT). Fifteen minutes before administration of the allodynia-inducing agents, the experimental mice are given 1 mg/kg NB-DNJ. Thirty (30) minutes following administration of NB-DNJ, the allodynic response is monitored as described by brushing the flank of each mouse with a paint brush.
Five to six mice per group are rendered allodynic by injection of 300 ng/kg sulprostone IP. Fifteen minutes before inducement of an allodynic response, experimental mice are given one of the following: 1 mg/kg, 300 μg/kg, and 100 μg/kg NB-DNJ; 1 mg/kg N-butyldeoxymannojirimycin; 1 mg/kg N-5-carboxy-1-deoxynojirimycin; 1 mg/kg N-dodecyldeoxynojirimycin; 1 mg/kg N-ethyl-1-deoxynojirimycin; 1 mg/kg, 300 μg/kg, and 30 μg/kg D-glucaro-delta-lactam; 1 mg/kg 4-O-a-D-glucopyranosylmoranoline; 1 mg/kg nojirimycin bisulfite; 1 mg/kg nojirimycin-1-sulfonic acid; 1 mg/kg N-(n-nonyl)deoxynojirimycin; 1 mg/kg N(7-oxadecyl)deoxynojirimycin; and 1 mg/kg N-(7-oxa-9,9,9-trifluorononyl)deoxynojirimycin. The DMSO vehicle and sulprostone alone are used as controls.
Starting thirty (30) minutes following administration of NB-DNJ, the allodynic response of each mouse was monitored by brushing the flank of the mouse with a paint brush.
Five to six mice per group are rendered allodynic by injection of one of the following: 300 ng/kg sulprostone IP, 100 ng/kg phenylephrine (PE) IP, or 100 ng NMDA intrathecally (IT). Fifteen minutes prior to the induction of allodynia, the mice are given D-glucaro-delta-lactam IP at […], or 1 mg/kg. PE or NMDA-treated mice are given 1 mg/kg D-glucaro-delta-lactam IP.

[2] = tested on: tactile allodynia in ligated Chung rats; test: Chung model (spinal nerve ligation, tactile allodynia, von Frey hairs); assay type: in vivo; details: Chung rat, 30 min after administration
Source text: One standard model for chronic pain involves the surgical ligation of the L5 (and optionally the L6) spinal nerves on one side in experimental animals. Rats recovering from the surgery gain weight and display a level of general activity similar to that of normal rats. However, these rats develop abnormalities of the foot, wherein the hindpaw is moderately everted and the toes are held together. More importantly, the hindpaw on the side affected by the surgery appears to become sensitive to pain from low-threshold mechanical stimuli, such as that producing a faint sensation of touch in a human, within about 1 week following surgery. […]
Tactile allodynia is measured prior to and 30 minutes after drug administration using von Frey hairs that are a series of fine hairs with incremental differences in stiffness. […] The applied force has been calculated to range from 0.41 to 15.1 grams. […] The 50% paw withdrawal threshold is determined using the method of Dixon, W. J., Ann. […] The post-drug threshold is compared to the pre-drug threshold and the percent reversal of tactile sensitivity is calculated based on a normal threshold of 15.1 grams.
Control rats are given the vehicle alone. Thirty (30) minutes following administration rats are brushed with Von Freys hairs and tactile allodynia is measured using the method of Dixon, as described above. […]

Row | Structure (SMILES) | attenuation of the allodynic response (analgesic activity) [1] | reversal of induced allodynia (reduction in allodynic response to Von Freys hair stimulus) ([2]; 1 mg/kg intraperitoneally, FIG. 6) | reversal of the allodynic response ([1]; 1 mg/kg given 15 min before sulprostone 300 ng/kg IP, FIG. 1) | analgesic activity (allodynic reversal) ([2]; 1 mg/kg and 3 mg/kg intraperitoneally, FIG. 5)
1 | O=C(O)[C@H]1NC(=O)[C@H](O)[C@@H](O)[C@@H]1O [D-glucaro-delta-lactam] | attenuate the allodynic response | approximately 70% | – | –
2 | CCCCN1C[C@H](O)[C@@H](O)[C@H](O)[C@H]1CO [NB-DNJ, N-butyl-1-deoxy-nojirimycin] | attenuate the allodynic response | – | significant reversal | analgesic

Reference: patent US7884115B2, “Methods and compositions for the treatment of pain and other neurological conditions” (Allergan, Inc., priority 2004, dated 2011)
